Here are results for eight compounds from PubChem BioAssay (NCI).

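Growth conditions: 96-well plates. Treatment: test compound, 48 hours, 5 concentrations. Analysis: linear interpolation between bracketing concentrations; unreached endpoints set to highest concentration. TGI denotes the concentration required for complete inhibition of growth.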 Where a SMILES comes first, the peptide text is derived from it. [ ]: non-standard residue; d: D form. The star is where a group is joined. Boc = CC(C)(C)OC(=O)*; Lac = C[CH](O)C(=O)O; OBn = c1ccc(CO*)cc1

Among the test systems are HS 578T breast; HOP-62 NSCLC; CCRF-CEM leukemia; U251 CNS; HL-60(TB) leukemia; UO-31 renal; T-47D breast; SK-MEL-28 melanoma; MDA-N; MDA-MB-231 breast; HOP-92 NSCLC; OVCAR-5 ovarian; SNB-19 CNS; KM12 colon; SF-295 CNS; M14 melanoma; UACC-62 melanoma; SF-268 CNS; A549 NSCLC; SW-620 colon.
What all share (assay): NCI anticancer screen, dose series, 48 h

For the compound `CC(OC(=O)C(Cc1ccccc1)NC(=O)C(Cc1ccccc1)NC(=O)OC(C)(C)C)C(=O)OCc1ccccc1` (stereo not drawn) (Boc-Phe-Phe-[Lac]-OBn; configuration not given here), the TGI in the experiment with HS 578T breast, in the experiment on HOP-62 NSCLC, with CCRF-CEM leukemia, in the experiment on U251 CNS, in the experiment with HL-60(TB) leukemia and in the experiment on UO-31 renal was above 100 µM throughout. Besides, the TGI in the experiment with T-47D breast, in the experiment on SK-MEL-28 melanoma, in the experiment with MDA-N, in the experiment with MDA-MB-231 breast, with HOP-92 NSCLC and in the experiment on OVCAR-5 ovarian was above 100 µM each time. Also, the TGI in the experiment with SNB-19 CNS, in the experiment with KM12 colon, in the experiment on SF-295 CNS and with M14 melanoma was above 100 µM in each case.
Regarding `CCOC(=O)c1c(SC(=O)c2ccc(C(C)(C)C)cc2)n(-c2ccccc2)c(=S)n(-c2ccccc2)c1=O`, the TGI with HS 578T breast, with HOP-62 NSCLC, with UACC-62 melanoma, with CCRF-CEM leukemia, with U251 CNS and in the experiment on HL-60(TB) leukemia was above 100 µM throughout. Besides, the TGI with T-47D breast, in the experiment with SK-MEL-28 melanoma, with SF-268 CNS, in the experiment with MDA-N, with A549 NSCLC and in the experiment on SW-620 colon was above 100 µM each time. For the same compound, the TGI in the experiment on MDA-MB-231 breast, in the experiment on HOP-92 NSCLC, in the experiment with OVCAR-5 ovarian, with SNB-19 CNS, with KM12 colon and with SF-295 CNS was above 100 µM throughout. Also, in the experiment on M14 melanoma, the TGI is above 100 µM.
For `O=c1ccn([C@@H]2C[C@H]2CO)c(=O)[nH]1`, the TGI with HS 578T breast, in the experiment with HOP-62 NSCLC, with UACC-62 melanoma, in the experiment on CCRF-CEM leukemia, with U251 CNS and in the experiment with HL-60(TB) leukemia was above 100 µM each time. The TGI in the experiment on UO-31 renal, in the experiment with T-47D breast, with SK-MEL-28 melanoma, in the experiment on SF-268 CNS, in the experiment on MDA-N and in the experiment on A549 NSCLC was above 100 µM in each case. Besides, the TGI in the experiment with SW-620 colon, with MDA-MB-231 breast, in the experiment on HOP-92 NSCLC, with OVCAR-5 ovarian, in the experiment with SNB-19 CNS and in the experiment with KM12 colon was above 100 µM each time. Besides, the TGI with M14 melanoma is above 100 µM.
Take `NC(CCCCCCCCCCP(=O)(O)O)C(=O)O` (centres undefined): the TGI in the experiment on HS 578T breast, in the experiment with UACC-62 melanoma, in the experiment with CCRF-CEM leukemia, in the experiment on U251 CNS, with HL-60(TB) leukemia and in the experiment with UO-31 renal was above 100 µM throughout. Besides, the TGI with T-47D breast, with SK-MEL-28 melanoma, with MDA-N, with A549 NSCLC, in the experiment on SW-620 colon and in the experiment on MDA-MB-231 breast was above 100 µM in each case. In addition, the TGI in the experiment with HOP-92 NSCLC, with OVCAR-5 ovarian, in the experiment with SNB-19 CNS, with KM12 colon, in the experiment with SF-295 CNS and with M14 melanoma was above 100 µM each time.
As to `CCN(CC)c1ccc2cc(C(N)=O)c(=N)oc2c1`, the TGI was 45.8 µM in the experiment with HS 578T breast; above 100 µM in the experiment with HOP-62 NSCLC; above 100 µM in the experiment with UACC-62 melanoma; above 100 µM in the experiment with CCRF-CEM leukemia; above 100 µM in the experiment on U251 CNS; above 100 µM in the experiment with HL-60(TB) leukemia. Further, the TGI with T-47D breast is 83.9 µM; in the experiment on SK-MEL-28 melanoma it was above 100 µM; in the experiment on SF-268 CNS it was above 100 µM; in the experiment on MDA-N, above 100 µM; in the experiment on A549 NSCLC, above 100 µM; in the experiment on SW-620 colon it was above 100 µM. Further, the TGI with MDA-MB-231 breast, in the experiment on HOP-92 NSCLC, in the experiment on OVCAR-5 ovarian, in the experiment on SNB-19 CNS, with KM12 colon and in the experiment with M14 melanoma was above 100 µM throughout.
For the compound `COc1c2c(cc3c1C(=O)c1c(O)cccc1C3=O)CC(O)CC2` (centres undefined), the TGI was 74.1 µM in the experiment on HS 578T breast; 46 µM in the experiment on HOP-62 NSCLC; above 100 µM with UACC-62 melanoma; above 100 µM in the experiment on CCRF-CEM leukemia; above 100 µM in the experiment on U251 CNS; above 100 µM in the experiment on HL-60(TB) leukemia. Besides, the TGI with UO-31 renal is above 100 µM; in the experiment on T-47D breast, 93.6 µM; in the experiment on SK-MEL-28 melanoma it was above 100 µM; in the experiment with MDA-N, above 100 µM; with A549 NSCLC, above 100 µM; with SW-620 colon it was above 100 µM. The TGI in the experiment with MDA-MB-231 breast is 51.9 µM; in the experiment on HOP-92 NSCLC it was 40.1 µM; in the experiment with OVCAR-5 ovarian, above 100 µM; in the experiment on SNB-19 CNS, 57.1 µM; in the experiment with KM12 colon, above 100 µM; in the experiment with SF-295 CNS, 46.5 µM. Besides, the TGI in the experiment with M14 melanoma was above 100 µM.
As for `O=c1c2cccnc2n2n1Cc1ccccc1C2`, the TGI in the experiment on HS 578T breast, in the experiment with HOP-62 NSCLC, with UACC-62 melanoma, in the experiment with CCRF-CEM leukemia, in the experiment on U251 CNS and with HL-60(TB) leukemia was above 100 µM each time. Besides, the TGI in the experiment with UO-31 renal, in the experiment with T-47D breast, in the experiment on SK-MEL-28 melanoma, with SF-268 CNS, in the experiment with MDA-N and with A549 NSCLC was above 100 µM throughout. Also, the TGI in the experiment with SW-620 colon, with MDA-MB-231 breast, in the experiment with HOP-92 NSCLC, with OVCAR-5 ovarian and with SF-295 CNS was above 100 µM in each case.
Regarding `NC1c2c(Br)sc(N3CCCC3)c2C(=O)C1O` (centres undefined), the TGI with HS 578T breast, in the experiment with UACC-62 melanoma, in the experiment on CCRF-CEM leukemia, in the experiment on U251 CNS, in the experiment on HL-60(TB) leukemia and in the experiment with UO-31 renal was above 50 µM throughout. The TGI in the experiment with T-47D breast, with SF-268 CNS, in the experiment on MDA-N, in the experiment on A549 NSCLC, in the experiment with SW-620 colon and with MDA-MB-231 breast was above 50 µM throughout. Further, the TGI in the experiment with HOP-92 NSCLC, with OVCAR-5 ovarian, in the experiment on SNB-19 CNS, with KM12 colon, in the experiment on SF-295 CNS and in the experiment on M14 melanoma was above 50 µM throughout.
